Source: patent US4082849A, “Halogenated N-(3,5-dihalophenyl)cyclopropanedicarboximides” (priority 1975, dated 1978)
Like-named read-outs stand apart in the source and are kept apart here.

How the values were obtained:
[1] = test system: Sclerotinia sclerotiorum; assay: Test for Sclerotinia sclerotiorum controlling effect on cucumbers; type: in vivo; conditions: 100 ppm
Procedure: After one day, Sclerotinia sclerotiorum was inoculated on the surface of the leaf, and the disease severity was observed three days thereafter. The degree of the severity was determined in the following manner. The rate of diseased area on the leaf was measured and classified in one of the six infectious indexes (0, 1, 2, 3, 4, 5) according to the undermentioned criteria. The number of leaves corresponding to each infectious index ([NT]5) was determined, and degree of severity was calculated according to the undermentioned equation: […]

[2] = test system: Botrytis cinerea; assay: Test for Botrytis cinerea controlling effect on cucumbers; type: in vivo
Procedure: After one day, agar discs (diameter: 5 mm) with Botrytis cinerea were put on the leaves for inoculation. Three days after, the disease severity was observed, and the disease-controlling effect was estimated. Percentage of control was determined by the following procedure. The rate of diseased area on the tested leaf was measured and classified in one of the six infectious indexes (0, 1, 2, 3, 4, 5) according to the undermentioned criteria. The number of leaves corresponding to each infectious index ([NT]5) was determined, and percentage of control was calculated according to the undermentioned equation: […]

[3] = test system: Glomerella cingulata; assay: Anti-fungal spectrum, agar dilution method; type: cell-based; conditions: Colletotrichum gloeosporioides, PSA plate, 28° C, read-out: growth inhibiting effect
[4] = test system: Chaetomium globosum ATCC 6205; assay: Anti-fungal spectrum, agar dilution method; type: cell-based; conditions: Chaetomium globosum ATCC 6205, 50 ppm, PSA plate, 28° C
[5] = test system: Corticium rolfsii; assay: Anti-fungal spectrum, agar dilution method; type: cell-based; conditions: Agroathelia rolfsii, PSA plate, 28° C, read-out: growth inhibiting effect
[6] = test system: Fusarium oxysporum f. lycopersici; assay: Anti-fungal spectrum, agar dilution method; type: cell-based; conditions: PSA plate, 28° C, read-out: growth inhibiting effect
[7] = test system: Giberella fujikuroi; assay: Anti-fungal spectrum, agar dilution method; type: cell-based; conditions: read-out: growth inhibiting effect
[8] = test system: Rhizoctonia solani; assay: Anti-fungal spectrum, agar dilution method; type: cell-based; conditions: PSA plate, 28° C, read-out: growth inhibiting effect
[9] = test system: Botrytis cinerea; assay: Anti-fungal spectrum, agar dilution method; type: cell-based; conditions: PSA plate, 28° C, read-out: growth inhibiting effect
[10] = test system: Phytophthora infestans; assay: microbe, parasite or virus in culture; type: cell-based; conditions: read-out: growth inhibiting effect
[11] = test system: Glomerella cingulata
Procedure: Test for Glomerella Cingulata controlling effect on grape
An aqueous dilution of the test compound in the form of a wettable powder preparation was applied to berries of grape at a rate of 20 ml per branch. After one day, Glomerella cingulata was inoculated on the surface of the berries immediately after injuring the inoculation site. Three days after inoculation, disease assessment was made. Percentage of control was calculated from the diameter of diseased area according to the following equation: [formula]

[12] = test system: Verticillium albo-atrum; assay: Anti-fungal spectrum, agar dilution method; type: cell-based; conditions: PSA plate, 28° C, read-out: growth inhibiting effect
[13] = test system: Colletotrichum lagenarium; assay: Anti-fungal spectrum, agar dilution method; type: cell-based; conditions: Colletotrichum orbiculare, PSA plate, 28° C, read-out: growth inhibiting effect
[14] = test system: Aspergillus niger ATCC 6275; assay: Anti-fungal spectrum, agar dilution method; type: cell-based; conditions: Aspergillus niger ATCC 6275, 50 ppm, PSA plate, 28° C
[15] = test system: Sclerotinia sclerotiorum; assay: Anti-fungal spectrum, agar dilution method; type: cell-based; conditions: PSA plate, 28° C, read-out: growth inhibiting effect
[16] = test system: Pellicularia sasakii; assay: Anti-fungal spectrum, agar dilution method; type: cell-based; conditions: read-out: growth inhibiting effect
[17] = test system: Rhizopus nigricans; assay: Anti-fungal spectrum, agar dilution method; type: cell-based; conditions: Rhizopus stolonifer, PSA plate, 28° C, read-out: growth inhibiting effect
[18] = test system: Pyricularia oryzae; assay: microbe, parasite or virus in culture; type: cell-based; conditions: read-out: growth inhibiting effect
[19] = test system: Rhizoctonia solani
Procedure: Test for Rhizoctonia solani controlling effect on cucumber
Farm soil was charged into pots of 9 cm in diameter and a soil (10 ml) infected with Rhizoctonia solani was dispersed over the surface of said soil. Each of the test compounds in the form of emulsifiable concentrates was diluted with water to a given concentration, and the dilution was applied into each pot in a proportion of 20 ml per pot. After 2 hours, 10 seeds of cucumber were sowed therein. 5 Days thereafter, the infectious state of the grown seedlings was observed, and the percentage of stand was calculated according to the following equation: [formula]

[20] = Giberella fujikuroi, 50 ppm, PSA plate, 28° C
[21] = Pellicularia sasakii, 50 ppm, PSA plate, 28° C

| Molecule | Degree of severity [1] | Percentage of control ([2]; 50 ppm) | Percentage of control ([2]; 200 ppm) | inhibition at 50 ppm [3] | growth inhibiting effect [4] | inhibition at 50 ppm [5] | inhibition at 50 ppm [6] | inhibition at 50 ppm [8] | inhibition at 50 ppm [9] | inhibition at 50 ppm [10] | Percentage of control ([11]; 250 ppm of ingredient) | inhibition at 50 ppm [12] | inhibition at 50 ppm [13] | growth inhibiting effect [14] | inhibition at 50 ppm [15] | inhibition at 50 ppm [17] | inhibition at 50 ppm [18] | Percentage of stand ([19]; 250 ppm) | Percentage of stand ([19]; 500 ppm) | other results |
| --- | --- | --- | --- | --- | --- | --- | --- | --- | --- | --- | --- | --- | --- | --- | --- | --- | --- | --- | --- | --- |
| CCCCNC(=O)n1c(NC(=O)OC)nc2ccccc21 [Methyl-1-(butylcarbamoyl)-2-benzimidazole carbamate, reference compound] | 35% | 90% | 100% |  |  |  |  |  |  |  |  |  |  |  |  |  |  |  |  |  |
| CC12CC1(Cl)C(=O)N(c1cc(Br)cc(Br)c1)C2=O (stereo not drawn) [Compound 3, N-(3,5-dibromophenyl)-α-chloro-β-methylcyclopropanedicarboximide] | 94% | 92% | 100% | 100% | A (no growth) | 100% | 100% | 100% | 100% | 100% | 78.5% | 100% | 90% | A (no growth) | 100% | 90% | 90% |  |  | inhibition at 50 ppm [7, 20]: 100%; inhibition at 50 ppm [16, 21]: 100% |
| Mancozeb [reference compound] |  |  |  |  |  |  |  |  |  |  |  |  |  |  |  |  |  |  |  | Percentage of control ([11]; 140 ppm of ingredient): 65.0% |
| CC12CC1(Br)C(=O)N(c1cc(Cl)cc(Cl)c1)C2=O (stereo not drawn) [Compound 5] | 100% | 95% | 100% |  |  |  |  |  |  |  |  |  |  |  |  |  |  |  |  |  |
| O=C1C2CC2(Cl)C(=O)N1c1cc(Cl)cc(Cl)c1 (stereo not drawn) [Compound 2] | 100% | 100% | 100% |  |  |  |  |  |  |  | 100% |  |  |  |  |  |  | 100% | 100% |  |
| CC12CC1(Cl)C(=O)N(c1cc(Cl)cc(Cl)c1)C2=O (stereo not drawn) [Compound 1, N-(3,5-dichlorophenyl)-α-chloro-β-methylcyclopropanedicarboximide] | 100% |  |  | 100% | A (no growth) | 100% | 100% | 100% | 100% | 100% | 100% | 100% | 100% | A (no growth) | 100% | 100% | 90% | 100% | 100% | inhibition at 50 ppm [7, 20]: 100%; inhibition at 50 ppm [16, 21]: 100% |
| CC1C2C(=O)N(c3cc(Cl)cc(Cl)c3)C(=O)C12Cl (stereo not drawn) [Compound 4] | 100% | 100% | 100% |  |  |  |  |  |  |  |  |  |  |  |  |  |  | 96.7% | 100% |  |
| CC12CC1(C)C(=O)N(c1cc(Cl)cc(Cl)c1)C2=O (stereo not drawn) [reference compound] |  |  |  | 30% | E (5 % inhibition) | 0% | 70% | 90% | 100% | 0% | 6.5% | 5% | 0% | E (5 % inhibition) | 100% | 0% | 0% | 0% | 21.3% | inhibition at 50 ppm [7]: 0%; inhibition at 50 ppm [16]: 100% |
| O=[N+]([O-])c1c(Cl)c(Cl)c(Cl)c(Cl)c1Cl [PCNB, reference compound] |  |  |  |  |  |  |  |  |  |  |  |  |  |  |  |  |  | 93.4% |  |  |
